This is an account of results in ChEMBL document CHEMBL5376003, “Structure-Activity Relationship of FL118 Platform Position 7 Versus Position 9-Derived Compounds and Their Mechanism of Action and Antitumor Activity” (J Med Chem, 2023).

The subject of series [1] is Cell membrane. Put plainly: Induction of mitochondrial membrane potential loss in human HCT-116 cells assessed as ratio of red to green fluorescence intensity at 20 nM incubated for 24 hrs by JC-1 staining based flow cytometry. The series is classed as subcellular.
For series [2], the system named is HCT-116. Put plainly: Induction of apoptosis in human HCT-116 cells assessed as late apoptotic cells at 2.5 nM incubated for 48 hrs by Annexin V-FITC/PI staining based flow cytometry assay. The series is classed as functional. A general note: Flow cytometry measures light scatter and fluorescence of single cells or particles in a stream.
Series [3] deals with HCT-116. Put plainly: Induction of apoptosis in human HCT-116 cells assessed as late apoptotic cells at 10 nM incubated for 48 hrs by Annexin V-FITC/PI staining based flow cytometry assay. The series is classed as functional.
For series [4], the system named is HCT-116. Briefly: Induction of apoptosis in human HCT-116 cells assessed as upregulation of cytochrome-C protein expression incubated for 48 hrs by Western blotting analysis. The series is classed as functional, cell-based. On the technique in general: A western blot detects proteins with antibodies after separation by electrophoresis.
Series [5] relates to HCT-116. Briefly: Induction of apoptosis in human HCT-116 cells assessed as downregulation of Bcl-2 protein expression incubated for 48 hrs by Western blotting analysis. The series is classed as functional, cell-based.
Series [6] relates to HCT-116. Briefly: Induction of apoptosis in human HCT-116 cells assessed as increase in caspase-3 activity incubated for 48 hrs by BCA protein assay. It is filed as functional, cell-based.
The subject of series [7] is PDX27454. Briefly: Antitumor activity against human PDX27454 cells xenografted in SCID mouse model assessed as reduction in tumor growth at 10 mg/kg,po administrated once per week for 4 weeks. The series is classed as functional, organism-based. For orientation: Xenograft models place foreign cells or tissue in a host animal.
The test system of series [8] is PDX27454. Briefly: Antitumor activity against human PDX27454 cells xenografted in SCID mouse model assessed as reduction in tumor growth at 15 mg/kg,ip administrated once per week for 4 weeks. The series is classed as functional, organism-based.
Series [9] can be described thus: Toxicity in SCID mouse xenografted with human PDX27454 cells assessed as body weight loss at 15 mg/kg,po administrated once per week for 4 weeks. The series is classed as organism-based. Conditions: in vivo, 672 h.
The nature of series [10]: Toxicity in SCID mouse xenografted with human PDX27454 cells assessed as body weight loss at 10 mg/kg,ip administrated once per week for 4 weeks. The series is classed as organism-based. Conditions: in vivo, 672 h.
Series [11] can be described thus: Toxicity in SCID mouse xenografted with human PDX27454 cells assessed as body weight loss at 15 mg/kg,ip administrated once per week for 4 weeks. The series is classed as organism-based. The following applies: in vivo, 672 h.
Series [12] can be described thus: Toxicity in SCID mouse xenografted with human PDX27454 cells assessed as body weight loss at 8 mg/kg,po administrated once per week for 3 weeks. The series is classed as organism-based. The following applies: in vivo, 504 h.
Series [13] has as its system PDX27454. Briefly: Antitumor activity against human PDX27454 cells xenografted in SCID mouse model assessed as reduction in tumor growth at 3 to 7 mg/kg,po administrated once per week for 4 weeks. The series is classed as functional, organism-based. The following applies: dose 3-7 mg/kg.
Series [14] can be described thus: Toxicity in SCID mouse xenografted with human PDX27454 cells assessed as body weight loss at 3 to 5 mg/kg,po administrated once per week for 4 weeks. It is filed as organism-based. Conditions: in vivo, 672 h, dose 3-5 mg/kg.
Series [15] in a line: Toxicity in SCID mouse xenografted with human PDX27454 cells assessed as body weight loss at 2.5 to 5 mg/kg,ip administrated once per week for 4 weeks. The series is classed as organism-based. Conditions: in vivo, 672 h, dose 2.5-5 mg/kg.

Calls of active or inactive are those of the source. No cut-off for these calls is given here.

With `CC[C@@]1(O)C(=O)OCc2c1cc1n(c2=O)Cc2c-1nc1cc3c(cc1c2-c1cc(OC)cc(OC)c1)OCO3`, the Ratio in [1] was 2.62. Moreover, the Activity in [2] was 5.58%; in series [3], 10.87%; in series [4], “Dose-Dependent Effect”; in series [5], “Dose-Dependent Effect”; in [6], “Dose-Dependent Effect”.
As for `CCc1ccc(-c2c3c(nc4cc5c(cc24)OCO5)-c2cc4c(c(=O)n2C3)COC(=O)[C@]4(O)CC)cc1`, the result in series [7] was Active. In addition, the result in [8] was inactive. In addition, the figures for the Activity result in series [9], in [10] and in series [11] were “Toxic”, “Non-Toxic” and “Non-Toxic”, respectively.
For the compound `CC[C@@]1(O)C(=O)OCc2c1cc1n(c2=O)Cc2c-1nc1cc3c(cc1c2-c1ccc(OC)cc1)OCO3`, the Activity is listed as 20% in [12], “Toxic” in [14] and “Toxic” in [15]. The result in [13] was Active.
